The values that follow come from patent US20170355705A1 (GlaxoSmithKline Intellectual Property (No.2) Limited, priority 2014, published 2017).

Counter-ions that a name gives are not always drawn.

For the assay, the target named is T1, SIRT1 (Homo sapiens, UniProt Q96EB6).
T1 sequence (Q96EB6 1-747): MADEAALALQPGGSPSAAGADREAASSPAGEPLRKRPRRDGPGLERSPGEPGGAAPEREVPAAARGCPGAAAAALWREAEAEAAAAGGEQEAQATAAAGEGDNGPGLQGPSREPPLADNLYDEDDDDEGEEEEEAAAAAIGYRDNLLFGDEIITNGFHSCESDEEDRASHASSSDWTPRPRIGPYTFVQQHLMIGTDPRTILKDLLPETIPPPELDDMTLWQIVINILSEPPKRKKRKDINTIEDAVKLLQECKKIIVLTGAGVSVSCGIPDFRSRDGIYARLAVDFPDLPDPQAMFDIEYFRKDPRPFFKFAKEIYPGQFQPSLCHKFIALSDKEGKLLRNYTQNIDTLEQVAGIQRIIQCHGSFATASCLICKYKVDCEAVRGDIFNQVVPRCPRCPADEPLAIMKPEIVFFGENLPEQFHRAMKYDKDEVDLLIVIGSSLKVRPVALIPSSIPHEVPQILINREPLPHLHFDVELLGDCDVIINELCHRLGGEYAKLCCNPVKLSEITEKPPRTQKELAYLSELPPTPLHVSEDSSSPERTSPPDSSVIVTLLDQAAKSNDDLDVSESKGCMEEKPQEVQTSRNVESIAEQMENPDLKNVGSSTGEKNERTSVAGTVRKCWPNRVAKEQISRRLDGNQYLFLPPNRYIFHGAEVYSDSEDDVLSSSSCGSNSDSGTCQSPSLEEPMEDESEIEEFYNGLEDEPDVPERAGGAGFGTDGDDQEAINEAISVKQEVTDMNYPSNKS
Nature of the assay: Trp mass spectrometry assay of SIRT1 activity (EC1.5, percent maximum activation). The assay is classed as biochemical. Conditions: Trp mass spectrometry assay; for TRP Activity (EC1.5): EC1.5 = concentration giving 150% activation of SIRT1; for TRP MAX RESP (percent maximum fold activation): percent maximum activation of SIRT1. From the text:
Mass spectrometry based assays were used to identify modulators of SIRT1 activity. […] The peptide was labeled with the fluorophore 5TMR (excitation 540 nm/emission 580 nm) at the C-terminus. The sequence of the peptide substrate was based on p53 with several modifications. In addition, the methionine residue naturally present in the sequence was replaced with the norleucine because the methionine may be susceptible to oxidation during synthesis and purification.
The Trp mass spectrometry assay was conducted as follows. […] The SIRT1 protein was obtained by cloning the SirT1 gene into a T7-promoter containing vector, which was then expressed in BL21(DE3) bacterial cells and purified as described in further detail below. Test compound was added at varying concentrations to this reaction mixture and the resulting reactions were monitored. After the 25 minute incubation with SIRT1, 10 μL of 10% formic acid was added to stop the reaction. The resulting reactions were sealed and frozen for later mass spec analysis. The relative SIRT1 activity was then determined by measuring the amount of O-acetyl-ADP-ribose (OAADPR) formed (or, alternatively, the amount of deacetylated Trp peptide generated) by the NAD-dependent sirtuin deacetylation reaction in the presence of varying concentrations of the test compound versus control reactions lacking the test compound. The degree to which the test agent activated deacetylation by SIRT1 was expressed as EC1.5 (i.e., the concentration of compound required to increase SIRT1 activity by 50% over the control lacking test compound), and Percent Maximum Activation (i.e., the maximum activity relative to control (100%) obtained for the test compound).
This time point was the same as that used for test compounds and, within the linear range, the endpoint represents a change in velocity.
For the above assay, SIRT1 protein was expressed and purified as follows. The SirT1 gene was cloned into a T7-promoter containing vector and transformed into BL21(DE3). The protein was expressed by induction with 1 mM IPTG as an N-terminal His-tag fusion protein at 18° C. overnight and harvested at 30,000×g. Cells were lysed with lysozyme in lysis buffer (50 mM Tris-HCl, 2 mM Tris[2-carboxyethyl]phosphine (TCEP), 10 μM ZnCl2, 200 mM NaCl) and further treated with sonication for 10 min for complete lysis. The protein was purified over a Ni-NTA column (Amersham) and fractions containing pure protein were pooled, concentrated and run over a sizing column (Sephadex S200 26/60 global). The peak containing soluble protein was collected and run on an Ion-exchange column (MonoQ). Gradient elution (200 mM-500 mM NaCl) yielded pure protein. This protein was concentrated and dialyzed against dialysis buffer (20 mM Tris-HCl, 2 mM TCEP) overnight. The protein was aliquoted and frozen at −80° C. until further use.
“NT” means not tested; “ND” means not determinable.

For `O=C(Nc1cncc(OC[C@H](O)CO)c1)N1c2nc(-c3cccc(C(F)(F)F)c3)c(Cl)cc2N2CC[C@H]1C2` [Example 23, (4S)-8-chloro-N-(5-((R)-2,3-dihydroxypropoxy)pyridin-3-yl)-7-(3-(trifluoromethyl)phenyl)-3,4-dihydro-1,4-methanopyrido[2,3-b][1,4]diazepine-5(2H)-carboxamide], the “TRP Activity (EC1.5)” value was “A (EC1.5<1 μM)” and the “TRP MAX RESP (percent maximum fold activation)” value is listed as “A (Fold activation ≧150%)”.

Turning to `O=C(Nc1cc(OC[C@H](O)CO)ncn1)N1c2nc(-c3cccc(C(F)(F)F)c3)c(Cl)cc2N2CC[C@H]1C2` [Example 24, (4S)-8-chloro-N-(6-((R)-2,3-dihydroxypropoxy)pyrimidin-4-yl)-7-(3-(trifluoromethyl)phenyl)-3,4-dihydro-1,4-methanopyrido[2,3-b][1,4]diazepine-5(2H)-carboxamide], the “TRP Activity (EC1.5)” value is “B (EC1.5 1-25 μM)” and the “TRP MAX RESP (percent maximum fold activation)” value was “A (Fold activation ≧150%)”.

As for `Cc1cc(-c2nc3c(c(C)c2C)N2CC[C@@H](C2)N3C(=O)Nc2ccccn2)ccn1` [Example 25, (4S)-8,9-dimethyl-7-(2-methylpyridin-4-yl)-N-(pyridin-2-yl)-3,4-dihydro-1,4-methanopyrido[2,3-b][1,4]diazepine-5(2H)-carboxamide], the “TRP Activity (EC1.5)” value was “B (EC1.5 1-25 μM)” and the “TRP MAX RESP (percent maximum fold activation)” value is recorded as “A (Fold activation ≧150%)”.

On to `Cc1cc(-c2nc3c(cc2Cl)N2CC[C@@H](C2)N3C(=O)Nc2cc(OC[C@@H](O)CO)ccn2)ccn1` [Example 27, (4S)-8-chloro-N-(4-((S)-2,3-dihydroxypropoxy)pyridin-2-yl)-7-(2-methylpyridin-4-yl)-3,4-dihydro-1,4-methanopyrido[2,3-b][1,4]diazepine-5(2H)-carboxamide], for which the “TRP Activity (EC1.5)” value is reported as “B (EC1.5 1-25 μM)” and the “TRP MAX RESP (percent maximum fold activation)” value is “A (Fold activation ≧150%)”.

For `Cl.O=C(Nc1ccnc(OC[C@@H](O)CO)n1)N1c2nc(-c3cccc(C(F)(F)F)c3)c(Cl)cc2N2CC[C@H]1C2` [Example 28, (4S)-8-chloro-N-(2-((S)-2,3-dihydroxypropoxy)pyrimidin-4-yl)-7-(3-(trifluoromethyl)phenyl)-3,4-dihydro-1,4-methanopyrido[2,3-b][1,4]diazepine-5(2H)-carboxamide, Hydrochloride], the “TRP Activity (EC1.5)” value is listed as “A (EC1.5<1 μM)” and the “TRP MAX RESP (percent maximum fold activation)” value is reported as “A (Fold activation ≧150%)”.

Take `Cc1cc(-c2nc3c(cc2Cl)N2CC[C@@H](C2)N3C(=O)Nc2cnc(OC[C@H](O)CO)cn2)ccn1` [Example 29, (4S)-8-chloro-N-(5-((R)-2,3-dihydroxypropoxy)pyrazin-2-yl)-7-(2-methylpyridin-4-yl)-3,4-dihydro-1,4-methanopyrido[2,3-b][1,4]diazepine-5(2H)-carboxamide]: the “TRP Activity (EC1.5)” value is “B (EC1.5 1-25 μM)” and the “TRP MAX RESP (percent maximum fold activation)” value is “A (Fold activation ≧150%)”.

In the case of `O=C(Nc1ccnc(OC[C@@H](O)CO)n1)N1c2nc(-c3cccc(C(F)(F)F)c3)c(Cl)cc2N2CC[C@H]1C2` [Example 30, (4S)-8-chloro-N-(2-((S)-2,3-dihydroxypropoxy)pyrimidin-4-yl)-7-(3-(trifluoromethyl)phenyl)-3,4-dihydro-1,4-methanopyrido[2,3-b][1,4]diazepine-5(2H)-carboxamide], the “TRP Activity (EC1.5)” value is listed as “A (EC1.5<1 μM)” and the “TRP MAX RESP (percent maximum fold activation)” value is listed as “A (Fold activation ≧150%)”.

As for `O=C(Nc1cc(OC[C@H](O)CO)ccn1)N1c2nc(-c3cccc(C(F)(F)F)c3)c(Cl)cc2N2CC[C@H]1C2` [Example 31, (4S)-8-chloro-N-(4-((R)-2,3-dihydroxypropoxy)pyridin-2-yl)-7-(3-(trifluoromethyl)phenyl)-3,4-dihydro-1,4-methanopyrido[2,3-b][1,4]diazepine-5(2H)-carboxamide], the “TRP Activity (EC1.5)” value is “B (EC1.5 1-25 μM)” and the “TRP MAX RESP (percent maximum fold activation)” value is on record as “A (Fold activation ≧150%)”.

For `O=C(Nc1cc(OC[C@H](O)CO)ccn1)N1c2nc(-c3cccc(C(F)(F)F)c3)c(Cl)cc2N2CC[C@H]1C2` [Example 32, (4S)-8-chloro-N-(4-((R)-2,3-dihydroxypropoxy)pyridin-2-yl)-7-(3-(trifluoromethyl)phenyl)-3,4-dihydro-1,4-methanopyrido[2,3-b][1,4]diazepine-5(2H)-carboxamide, Hydrochloride], the “TRP Activity (EC1.5)” value is on record as “B (EC1.5 1-25 μM)” and the “TRP MAX RESP (percent maximum fold activation)” value is “A (Fold activation ≧150%)”.

As for `O=C(Nc1cnc(OC[C@@H](O)CO)cn1)N1c2nc(-c3cccc(C(F)(F)F)c3)c(Cl)cc2N2CC[C@H]1C2` [Example 33, (4S)-8-chloro-N-(5-((S)-2,3-dihydroxypropoxy)pyrazin-2-yl)-7-(3-(trifluoromethyl)phenyl)-3,4-dihydro-1,4-methanopyrido[2,3-b][1,4]diazepine-5(2H)-carboxamide], the “TRP Activity (EC1.5)” value was “B (EC1.5 1-25 μM)” and the “TRP MAX RESP (percent maximum fold activation)” value was “A (Fold activation ≧150%)”.

As to `O=C(Nc1cnc(OC[C@H](O)CO)cn1)N1c2nc(-c3cccc(C(F)(F)F)c3)c(Cl)cc2N2CC[C@H]1C2` [Example 34, (4S)-8-chloro-N-(5-((R)-2,3-dihydroxypropoxy)pyrazin-2-yl)-7-(3-(trifluoromethyl)phenyl)-3,4-dihydro-1,4-methanopyrido[2,3-b][1,4]diazepine-5(2H)-carboxamide], the “TRP Activity (EC1.5)” value was “B (EC1.5 1-25 μM)” and the “TRP MAX RESP (percent maximum fold activation)” value is “A (Fold activation ≧150%)”.

For the molecule `O=C(Nc1ccccn1)N1c2nc(-c3cccc(C(F)(F)F)c3)c(Cl)cc2N2CC[C@H]1C2` [Example 35, (4S)-8-chloro-N-(pyridin-2-yl)-7-(3-(trifluoromethyl)phenyl)-3,4-dihydro-1,4-methanopyrido[2,3-b][1,4]diazepine-5(2H)-carboxamide], the “TRP Activity (EC1.5)” value was “A (EC1.5<1 μM)” and the “TRP MAX RESP (percent maximum fold activation)” value is “A (Fold activation ≧150%)”.

Turning to `Cc1cc(-c2nc3c(cc2C)N2CC[C@@H](C2)N3C(=O)Nc2ccccn2)ccn1` [Example 36, (4S)-8-methyl-7-(2-methylpyridin-4-yl)-N-(pyridin-2-yl)-3,4-dihydro-1,4-methanopyrido[2,3-b][1,4]diazepine-5(2H)-carboxamide], the “TRP Activity (EC1.5)” value was “B (EC1.5 1-25 μM)” and the “TRP MAX RESP (percent maximum fold activation)” value is “A (Fold activation ≧150%)”.

Regarding `Cc1cc(-c2nc3c(cc2Cl)N2CC[C@@H](C2)N3C(=O)Nc2ccnc(OC[C@@H](O)CO)c2)ccn1` [Example 37, (4S)-8-chloro-N-(2-((S)-2,3-dihydroxypropoxy)pyridin-4-yl)-7-(2-methylpyridin-4-yl)-3,4-dihydro-1,4-methanopyrido[2,3-b][1,4]diazepine-5(2H)-carboxamide], the “TRP Activity (EC1.5)” value was “B (EC1.5 1-25 μM)” and the “TRP MAX RESP (percent maximum fold activation)” value is on record as “A (Fold activation ≧150%)”.
